# Measured values from US9968619B2, “Method of treating triple-negative breast cancer using thienotriazolodiazepine compounds” (ONCOETHIX GMBH, priority 2014, dated 2018).
# Entries after “also recorded” stand apart in the source; their conditions may differ.
# Key:
# Oral exposure in the rat = assay type: in vivo, Sprague Dawley rats; conditions: 1 mg/kg intravenous
# Method: The oral bioavailability of three formulations of solid dispersions of compound (1-1) was determined in rats. The three dispersions chosen were the 25% dispersion of compound (1-1) in PVP, the 25% dispersion of compound (1-1) in HPMCAS-MG, and the 50% dispersion of compound (1-1) in HPMCAS-MG. The animals used in the study were Specific Pathogen Free (SPF) Hsd: Sprague Dawley rats obtained from the Central Animal Laboratory at the University of Turku, Finland. The rats were originally purchased from Harlan, The Netherlands. The rats were female and were ten weeks of age, and 12 rats were used in the study. […]
# The oral dosing solutions containing the 25% dispersion of compound (1-1) in PVP, the 25% dispersion of compound (1-1) in HPMCAS-MG, and the 50% dispersion of compound (1-1) in HPMCAS-MG were prepared by adding a pre-calculated amount of sterile water for injection to containers holding the dispersion using appropriate quantities to obtain a concentration of 0.75 mg/mL of compound (1-1). […]
# Pharmacokinetic parameters were calculated with the Phoenix WinNonlin software package (version 6.2.1, Pharsight Corp., CA, USA) with standard noncompartmental methods. The elimination phase half-life (t1/2) was calculated by least-squares regression analysis of the terminal linear part of the log concentration-time curve. […]
# MDA-MB-468 [1] = assay: Cell counting proliferation, MDA-MB-468; assay type: cell-based; conditions: Homo sapiens
# MDA-MB-231 = assay: Cell counting proliferation, MDA-MB-231; assay type: cell-based; conditions: Homo sapiens
# HCC1937 = assay: Cell cycle after drug washout, HCC1937; assay type: cell-based, human; conditions: 650 nM for 72 h, then 48 h of drug washout
# Method: Cells were staining with propidium iodide then analyzed using a FACScan flow cytometer. […] After 72 h of treatment, control and treated cells were washed with PBS and re-incubated with compound (1-1) free medium (drug washout). As show in FIG. 14A-14C, significant differences in the percentage of compound (1-1)-treated cells in the G1, S and G2/M phases with respect to untreated controls were determined by a one-way ANOVA test (p<0.001) followed by an SNK a posteriori test. After washout, significant differences in the percentage of cells in a given cell cycle phase between control and pre-treated cells were determined with the Student t-test for independent samples with equal or different variance, as appropriate. * , × and # means significant difference between treated cells respect and controls in G1 phase (*p<0.05, **p<0.01), G2/M phase (×p<0.05, ××p<0.01) and S phase p<0.05, ## p<0.01), respectively. Each bar and vertical line represents the mean±SEM, respectively (n≥3).
# MDA-MB-468 [2] = assay: Western blotting and RT-PCR expression, MDA-MB-468; assay type: cell-based, human; conditions: 24, 48 and 72 h
# Excerpt: Logarithmic transformation of the variable was applied before the ANOVA test if required. As shown in FIG. 16A-C, Western blots are representative of three independent experiments where each bar and vertical line represents the mean±SEM, respectively (n=3). As shown in FIG. 15D-15G, C-MYC protein and mRNA levels were unchanged by Compound (1-1) treatment in all the three cell lines.
# CDKN1A (p21) mRNA levels were increased in all three cell models (p<0.001). […] Significant differences in the mRNA levels were determined by one-way ANOVA test (p<0.01) followed by SNK a posteriori test (*p<0.05, **p<0.01, […]). Logarithmic transformation of the variable was applied before the ANOVA test if required. Each bar and vertical line represents the mean±SEM, respectively (n=3). Western blots are representative of 3 independent experiments.
# [3] = MDA-MB-468, 48 h, 48 h exposure, normoxia
# [4] = MDA-MB-468, 72 h, 72 h exposure, hypoxia (0.1% O2)
# [5] = MDA-MB-468, 72 h, 72 h exposure, normoxia
# [6] = MDA-MB-231, 48 h, 48 h exposure, hypoxia (0.1% O2)
# [7] = MDA-MB-231, 48 h, 48 h exposure, normoxia
# [8] = MDA-MB-231, 72 h, 72 h exposure, hypoxia (0.1% O2)
# [9] = MDA-MB-231, 72 h, 72 h exposure, normoxia
# [10] = 650 nM, listed as compound (1-1), dihydrate
smiles,measurement,setting,value
"Cc1sc2c(c1C)C(c1ccc(Cl)cc1)=N[C@@H](CC(=O)Nc1ccc(O)cc1)c1nnc(C)n1-2 [Compound (1-1), 2-[(6S)-4-(4-chlorophenyl)-2,3,9-trimethyl-6H-thienol[3,2-f]-[1,2,4]triazolo[4,3-a][1,4]diazepin-6-yl]-N-(4-hydroxyphenyl)acetamide dihydrate]",CI/F,Oral exposure in the rat,0.804 L/h/kg
same,Emax,"MDA-MB-468 [1]; MDA-MB-468, 48 h, 48 h exposure, hypoxia (0.1% O2)",50%
same,GI50,"MDA-MB-468 [1]; MDA-MB-468, 48 h, 48 h exposure, hypoxia (0.1% O2), * = apparent value",0.0606 µM
same,Emax,MDA-MB-468 [1]; [3],30%
same,GI50,MDA-MB-468 [1]; [3],> 6 µM
same,Emax,MDA-MB-468 [1]; [4],71%
same,GI50,MDA-MB-468 [1]; [4],0.251 µM
same,Emax,MDA-MB-468 [1]; [5],80%
same,GI50,MDA-MB-468 [1]; [5],0.304 µM
same,Emax,MDA-MB-231; [6],67%
same,GI50,MDA-MB-231; [6],0.144 µM
same,Emax,MDA-MB-231; [7],71%
same,GI50,MDA-MB-231; [7],0.0922 µM
same,Emax,MDA-MB-231; [8],82%
same,GI50,MDA-MB-231; [8],0.0491 µM
same,Emax,MDA-MB-231; [9],89%
same,GI50,MDA-MB-231; [9],0.0559 µM
same,cell cycle pattern after drug washout,HCC1937,recovered the control cell cycle pattern
same,BRD2 levels,MDA-MB-468 [2]; 650 nM,increased
same,mRNA levels of BRD3,MDA-MB-468 [2]; 650 nM,reduced
same,mRNA levels of BRD4,MDA-MB-468 [2]; 650 nM,downregulated
same,c-Myc expression (mRNA and protein),"MDA-MB-468 [2]; 650 nM, dihydrate",down-regulated
same,c-Myc expression (mRNA and protein),MDA-MB-468 [2]; [10],downregulated; also recorded: downregulation
same,mRNA levels of n-Myc,MDA-MB-468 [2]; [10],downregulated; also recorded: downregulation
same,expression levels of c-MYC and n-MYC,"MDA-MB-468 [2]; RT-PCR, 500 nM",marked (p<0.05) reduction
